# Starred links: 1 amine or outer side, 2 acyl side, 3 side chain; linkers in the order of their positions; H or OH if unused. Non-standard residues stand in square brackets, D forms with d. Residues, ends and D or L forms follow the SMILES beside them. Groups on a side chain read outwards from the residue. *: point of attachment. C18 diacid = O=C(O)CCCCCCCCCCCCCCCCC(=O)*; γGlu = O=C(O)[C@H](CCC(=O)[*:2])N[*:1]; εLys = N[C@@H](CCCCN[*:1])C(=O)[*:2]; Aib = CC(C)(N)C(=O)O
# Tests used:
# [1] = biological target: human GLP-1 receptor (Homo sapiens, UniProt P43220); assay: cell-based; conditions: hGLP-1R
# [2] = biological target: T1, mouse GIP receptor (Mus musculus, UniProt Q0P543); assay: cell-based
# T1 sequence (Q0P543 19-460): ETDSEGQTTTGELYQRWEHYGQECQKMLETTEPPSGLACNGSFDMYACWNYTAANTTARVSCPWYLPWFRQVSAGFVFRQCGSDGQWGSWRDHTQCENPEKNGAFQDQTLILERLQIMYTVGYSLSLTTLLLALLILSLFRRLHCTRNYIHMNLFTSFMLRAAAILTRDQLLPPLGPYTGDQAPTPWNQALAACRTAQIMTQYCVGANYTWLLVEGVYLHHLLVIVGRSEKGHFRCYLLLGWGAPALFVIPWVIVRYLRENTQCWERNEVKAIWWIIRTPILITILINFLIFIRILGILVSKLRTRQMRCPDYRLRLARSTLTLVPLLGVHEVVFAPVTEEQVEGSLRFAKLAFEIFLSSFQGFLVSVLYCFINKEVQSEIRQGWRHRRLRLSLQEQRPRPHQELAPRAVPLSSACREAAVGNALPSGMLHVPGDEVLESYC
# [3] = biological target: T2, mouse GLP-1 receptor (Mus musculus, UniProt O35659)
# T2 sequence (O35659 22-463): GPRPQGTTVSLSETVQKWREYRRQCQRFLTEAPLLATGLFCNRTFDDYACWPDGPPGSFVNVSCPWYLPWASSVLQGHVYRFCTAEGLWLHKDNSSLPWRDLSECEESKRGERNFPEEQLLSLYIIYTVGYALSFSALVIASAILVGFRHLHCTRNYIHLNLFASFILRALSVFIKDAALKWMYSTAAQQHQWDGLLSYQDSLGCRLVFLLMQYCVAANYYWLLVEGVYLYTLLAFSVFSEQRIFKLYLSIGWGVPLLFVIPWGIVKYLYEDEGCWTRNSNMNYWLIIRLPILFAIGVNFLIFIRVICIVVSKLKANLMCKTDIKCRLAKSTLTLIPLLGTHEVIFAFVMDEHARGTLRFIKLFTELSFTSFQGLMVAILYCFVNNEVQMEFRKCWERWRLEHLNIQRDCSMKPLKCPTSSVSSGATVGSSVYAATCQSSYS
# Procedure: The in vitro functional potency is the measure of target receptor activation in a whole cell assay.
# In vitro functional potency was determined by measuring the response of the target receptor in a reporter gene assay in individual cell lines. […] When the respective receptor is activated, it results in the production of cAMP, which in turn results in expression of the luciferase protein. When assay incubation is completed, luciferase substrate (luciferin) is added resulting in the enzymatic conversion of luciferin to oxyluciferin and producing bioluminescence. The luminescence is measured as the readout for the assay.
# The cells lines used in these assays were BHK cells with BHKTS13 as a parent cell line. The cell lines were derived from a clone containing the CRE luciferase element and were established by further transfection with the respective receptor to obtain the relevant cell line.
# The cells were cultured at 37° C. with 5% CO2 in Cell Culture Medium. They were aliquoted and stored in liquid nitrogen. The cells were kept in continuous culture and were seeded out the day before each assay.
# GLP-1R and GcgR Cell Culture Medium consisted of DMEM medium with 10% FBS, 500 μg/mL G418, and 300 μg/mL hygromycin. GIPR Cell Culture Medium consisted of DMEM medium with 10% FBS, 400 μg/mL G418, and 300 μg/mL hygromycin. Assay Buffer consisted of DMEM w/o phenol red, 10 mM Hepes, 1×Glutamax, 1% ovalbumin, and 0.1% Pluronic F-68 with the addition of HSA at twice the final assay concentration.
# • 1) Cells were plated at 5000 cells/well and incubated overnight in the assay plate. • 2) Cells were washed once in DPBS. • 3) Stocks of the test compounds and reference compounds in concentrations ranging from 100-300 μM were diluted 1:150 in Assay Buffer. Compounds were then diluted 1:10 in column 1 of a 96 deep well dilution plate and then carried across the row creating a 3.5 fold, 12 point dilution curve. • 4) Assay Buffer (50 μl aliquot) with or without HSA was added to each well in the assay plate. • 5) A 50 μl aliquot of compound or blank was transferred from the dilution plate to the assay plate containing the Assay Buffer with or without HSA. • 6) The assay plate was incubated for 3 h in a 5% CO2 incubator at 37° C. 7) The cells were washed once with DPBS. • 8) A 100 μl aliquot of DPBS was added to each well of the assay plate. • 9) A 100 μl aliquot of steadylite plus reagent (light sensitive) was added to each well of the assay plate. • 10) Each assay plate was covered with aluminum foil to protect it from light and shaken at 250 RPM for 30 min at room temperature. • 11) Each assay plate was read in a microtiter plate reader.
# The data from the microtiter plate reader was first regressed in an Excel in order to calculate the x-axis, log scale concentrations based on the individual test compound's stock concentration and the dilutions of the assay. […] The software performs a non-linear regression (log(agonist) vs response). A minimum of two replicates was measured for each sample. The reported values are averages of the replicates.
# Chain of human GLP-1 receptor (P43220 24-463): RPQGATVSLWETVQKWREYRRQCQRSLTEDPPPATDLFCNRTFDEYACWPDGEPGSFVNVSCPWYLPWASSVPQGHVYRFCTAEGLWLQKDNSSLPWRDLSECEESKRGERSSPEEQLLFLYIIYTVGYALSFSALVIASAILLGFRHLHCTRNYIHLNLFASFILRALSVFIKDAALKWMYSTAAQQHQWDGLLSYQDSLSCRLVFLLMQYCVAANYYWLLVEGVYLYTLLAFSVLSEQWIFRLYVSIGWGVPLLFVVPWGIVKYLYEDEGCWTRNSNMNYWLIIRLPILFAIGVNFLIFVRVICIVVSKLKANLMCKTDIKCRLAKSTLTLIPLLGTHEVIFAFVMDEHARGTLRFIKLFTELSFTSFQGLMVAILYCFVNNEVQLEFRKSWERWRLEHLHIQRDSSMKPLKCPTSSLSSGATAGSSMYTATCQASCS
SMILES,"EC50 ([1]; CRE Luc 0% HSA EC50, 0% HSA)","EC50 ([1]; CRE Luc 1% HSA EC50, 1% HSA)",EC50 [2],EC50 [3]
CC[C@H](C)[C@H](NC(=O)[C@H](CO)NC(=O)[C@H](Cc1ccc(O)cc1)NC(=O)[C@H](CC(=O)O)NC(=O)[C@H](CO)NC(=O)[C@@H](NC(=O)[C@H](Cc1ccccc1)NC(=O)[C@@H](NC(=O)CNC(=O)[C@H](CCC(=O)O)NC(=O)C(C)(C)NC(=O)[C@@H](N)Cc1ccc(O)cc1)[C@@H](C)O)[C@@H](C)O)C(=O)N[C@@H](Cc1ccc(O)cc1)C(=O)N[C@@H](CC(C)C)C(=O)N[C@@H](CC(=O)O)C(=O)N[C@@H](CCCCN)C(=O)N[C@@H](CCC(N)=O)C(=O)N[C@@H](C)C(=O)N[C@@H](C)C(=O)NC(C)(C)C(=O)N[C@@H](CCC(=O)O)C(=O)N[C@@H](Cc1ccccc1)C(=O)N[C@H](C(=O)N[C@@H](CC(N)=O)C(=O)N[C@@H](Cc1c[nH]c2ccccc12)C(=O)N[C@@H](CC(C)C)C(=O)N[C@@H](CC(C)C)C(=O)N[C@@H](C)C(=O)NCC(=O)NCC(=O)N1CCC[C@H]1C(=O)N[C@@H](CO)C(=O)N[C@@H](CO)C(=O)NCC(=O)N[C@@H](C)C(=O)N1CCC[C@H]1C(=O)N1CCC[C@H]1C(=O)N1CCC[C@H]1C(=O)N[C@@H](CO)C(=O)N[C@@H](CCCCNC(=O)[C@@H](N)CCCCNC(=O)[C@@H](N)CCCCNC(=O)CC[C@H](NC(=O)CCCCCCCCCCCCCCCCC(=O)O)C(=O)O)C(N)=O)C(C)C [Compound 10],0.0182 nM,0.298 nM,0.259 nM,0.0021 nM
CC[C@H](C)[C@H](NC(=O)[C@H](CO)NC(=O)[C@H](Cc1ccc(O)cc1)NC(=O)[C@H](CC(=O)O)NC(=O)[C@H](CO)NC(=O)[C@@H](NC(=O)[C@H](Cc1ccccc1)NC(=O)[C@@H](NC(=O)CNC(=O)[C@H](CCC(=O)O)NC(=O)C(C)(C)NC(=O)[C@@H](N)Cc1ccc(O)cc1)[C@@H](C)O)[C@@H](C)CC)C(=O)N[C@@H](Cc1ccc(O)cc1)C(=O)N[C@@H](CC(C)C)C(=O)N[C@@H](CC(=O)O)C(=O)N[C@@H](CCCCN)C(=O)N[C@@H](CCC(N)=O)C(=O)N[C@@H](C)C(=O)N[C@@H](C)C(=O)NC(C)(C)C(=O)N[C@@H](CCCCNC(=O)[C@@H](N)CCCCNC(=O)[C@@H](N)CCCCNC(=O)CC[C@H](NC(=O)CCCCCCCCCCCCCCCCC(=O)O)C(=O)O)C(=O)N[C@@H](Cc1ccccc1)C(=O)N[C@H](C(=O)N[C@@H](CC(N)=O)C(=O)N[C@@H](Cc1c[nH]c2ccccc12)C(=O)N[C@@H](CC(C)C)C(=O)N[C@@H](CC(C)C)C(=O)N[C@@H](C)C(=O)NCC(=O)NCC(=O)N1CCC[C@H]1C(=O)N[C@@H](CO)C(=O)N[C@@H](CO)C(=O)NCC(=O)N[C@@H](C)C(=O)N1CCC[C@H]1C(=O)N1CCC[C@H]1C(=O)N1CCC[C@H]1C(=O)N[C@@H](CO)C(N)=O)C(C)C [Compound 11] (H-Y[Aib]EGTFISDYSIYLDKQAA[Aib]K([εLys-εLys-γGlu-C18 diacid])FVNWLLAGGPSSGAPPPS-NH2; N-terminus assumed),0.394 nM,,0.0137 nM,0.281 nM
CC[C@H](C)[C@H](NC(=O)[C@H](CO)NC(=O)[C@@H](NC(=O)[C@H](CC(=O)O)NC(=O)[C@H](CO)NC(=O)[C@@H](NC(=O)[C@H](Cc1ccccc1)NC(=O)[C@@H](NC(=O)CNC(=O)[C@H](CCC(=O)O)NC(=O)C(C)(C)NC(=O)[C@@H](N)Cc1c[nH]cn1)[C@@H](C)O)[C@@H](C)O)C(C)C)C(=O)N[C@@H](Cc1ccc(O)cc1)C(=O)N[C@@H](CC(C)C)C(=O)N[C@@H](CC(=O)O)C(=O)N[C@@H](CCCCN)C(=O)N[C@@H](CCC(N)=O)C(=O)N[C@@H](C)C(=O)N[C@@H](C)C(=O)NC(C)(C)C(=O)N[C@@H](CCCCNC(=O)[C@@H](N)CCCCNC(=O)[C@@H](N)CCCCNC(=O)CC[C@H](NC(=O)CCCCCCCCCCCCCCCCC(=O)O)C(=O)O)C(=O)N[C@@H](Cc1ccccc1)C(=O)N[C@H](C(=O)N[C@@H](CC(N)=O)C(=O)N[C@@H](Cc1c[nH]c2ccccc12)C(=O)N[C@@H](CC(C)C)C(=O)N[C@@H](CC(C)C)C(=O)N[C@@H](C)C(=O)NCC(=O)NCC(=O)N1CCC[C@H]1C(=O)N[C@@H](CO)C(=O)N[C@@H](CO)C(=O)NCC(=O)N[C@@H](C)C(=O)N1CCC[C@H]1C(=O)N1CCC[C@H]1C(=O)N1CCC[C@H]1C(=O)N[C@@H](CO)C(N)=O)C(C)C [Compound 12] (H-H[Aib]EGTFTSDVSIYLDKQAA[Aib]K([εLys-εLys-γGlu-C18 diacid])FVNWLLAGGPSSGAPPPS-NH2; N-terminus assumed),0.0029 nM,,> 10 nM,0.0022 nM
CC[C@H](C)[C@H](NC(=O)[C@H](CO)NC(=O)[C@H](Cc1ccc(O)cc1)NC(=O)[C@H](CC(=O)O)NC(=O)[C@H](CO)NC(=O)[C@@H](NC(=O)[C@H](Cc1ccccc1)NC(=O)[C@@H](NC(=O)CNC(=O)[C@H](CCC(=O)O)NC(=O)C(C)(C)NC(=O)[C@@H](N)Cc1ccc(O)cc1)[C@@H](C)O)[C@@H](C)O)C(=O)N[C@@H](Cc1ccc(O)cc1)C(=O)N[C@@H](CC(C)C)C(=O)N[C@@H](CCC(=O)O)C(=O)N[C@@H](CCCCN)C(=O)N[C@@H](CCC(N)=O)C(=O)N[C@@H](C)C(=O)N[C@@H](C)C(=O)NC(C)(C)C(=O)N[C@@H](CCCCNC(=O)[C@@H](N)CCCCNC(=O)[C@@H](N)CCCCNC(=O)CC[C@H](NC(=O)CCCCCCCCCCCCCCCCC(=O)O)C(=O)O)C(=O)N[C@@H](Cc1ccccc1)C(=O)N[C@H](C(=O)N[C@@H](CC(N)=O)C(=O)N[C@@H](Cc1c[nH]c2ccccc12)C(=O)N[C@@H](CC(C)C)C(=O)N[C@@H](CC(C)C)C(=O)N[C@@H](C)C(=O)NCC(=O)NCC(=O)N1CCC[C@H]1C(=O)N[C@@H](CO)C(=O)N[C@@H](CO)C(=O)NCC(=O)N[C@@H](C)C(=O)N1CCC[C@H]1C(=O)N1CCC[C@H]1C(=O)N1CCC[C@H]1C(=O)N[C@@H](CO)C(N)=O)C(C)C [Compound 15] (H-Y[Aib]EGTFTSDYSIYLEKQAA[Aib]K([εLys-εLys-γGlu-C18 diacid])FVNWLLAGGPSSGAPPPS-NH2; N-terminus assumed),0.0061 nM,0.128 nM,0.0273 nM,0.0017 nM
CC[C@H](C)[C@H](NC(=O)[C@H](CO)NC(=O)[C@H](Cc1ccc(O)cc1)NC(=O)[C@H](CC(=O)O)NC(=O)[C@H](CO)NC(=O)[C@@H](NC(=O)[C@H](Cc1ccccc1)NC(=O)[C@@H](NC(=O)CNC(=O)[C@H](CCC(=O)O)NC(=O)C(C)(C)NC(=O)[C@@H](N)Cc1ccc(O)cc1)[C@@H](C)O)[C@@H](C)O)C(=O)N[C@@H](Cc1ccc(O)cc1)C(=O)N[C@@H](CC(C)C)C(=O)N[C@@H](CCC(=O)O)C(=O)N[C@@H](CCCCN)C(=O)N[C@@H](CCC(N)=O)C(=O)N[C@@H](C)C(=O)N[C@@H](C)C(=O)NC(C)(C)C(=O)N[C@@H](CCCCNC(=O)[C@@H](N)CCCCNC(=O)[C@@H](N)CCCCNC(=O)CC[C@H](NC(=O)CCCCCCCCCCCCCCCCC(=O)O)C(=O)O)C(=O)N[C@@H](Cc1ccccc1)C(=O)N[C@H](C(=O)N[C@@H](CC(N)=O)C(=O)N[C@@H](Cc1c[nH]c2ccccc12)C(=O)N[C@@H](CC(C)C)C(=O)N[C@@H](CC(C)C)C(=O)N[C@@H](C)C(=O)NCC(=O)NCC(=O)N1CCC[C@H]1C(=O)N[C@@H](CO)C(=O)N[C@@H](CO)C(=O)NCC(=O)N[C@@H](C)C(N)=O)C(C)C [Compound 18] (H-Y[Aib]EGTFTSDYSIYLEKQAA[Aib]K([εLys-εLys-γGlu-C18 diacid])FVNWLLAGGPSSGA-NH2; N-terminus assumed),0.0033 nM,0.0899 nM,0.0243 nM,0.002 nM

# Reference: US20230346961A1, “GLP-1 AND GIP RECEPTOR CO-AGONISTS” (Novo Nordisk A/S, priority 2020, published 2023)
